Data reported in PubChem BioAssay (NCI).
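Five compound concentrations were applied to cells in 96-well plates for 48 hours; endpoints were derived by simple linear interpolation of the resulting dose-response curve. TGI is the concentration that stops growth completely.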

Columns and labels:
Test in all cases: NCI-60 cell line screen, 48 h
A498 renal = test system: A498 renal
786-0 renal = test system: 786-0 renal
HCT-15 colon = test system: HCT-15 colon
SF-539 CNS = test system: SF-539 CNS
SK-MEL-28 melanoma = test system: SK-MEL-28 melanoma
NCI-H522 lung = test system: NCI-H522 lung
LXFL 529 NSCLC = test system: LXFL 529 NSCLC
SNB-75 CNS = test system: SNB-75 CNS
NCI-H23 lung = test system: NCI-H23 lung
CCRF-CEM leukemia = test system: CCRF-CEM leukemia
KM20L2 colon = test system: KM20L2 colon
RXF 393 renal = test system: RXF 393 renal
SK-OV-3 ovarian = test system: SK-OV-3 ovarian
HCC-2998 colon = test system: HCC-2998 colon
HOP-18 NSCLC = test system: HOP-18 NSCLC
IGROV1 ovarian = test system: IGROV1 ovarian
NCI-H460 lung = test system: NCI-H460 lung
SF-295 CNS = test system: SF-295 CNS
DLD-1 colon = test system: DLD-1 colon
SK-MEL-2 melanoma = test system: SK-MEL-2 melanoma
SN12C renal = test system: SN12C renal
HL-60(TB) leukemia = test system: HL-60(TB) leukemia
ACHN renal = test system: ACHN renal
HT29 colon = test system: HT29 colon
TK-10 renal = test system: TK-10 renal
OVCAR-4 ovarian = test system: OVCAR-4 ovarian
RPMI-8226 leukemia = test system: RPMI-8226 leukemia
UACC-62 melanoma = test system: UACC-62 melanoma
U251 CNS = test system: U251 CNS
EKVX NSCLC = test system: EKVX NSCLC
UO-31 renal = test system: UO-31 renal
UACC-257 melanoma = test system: UACC-257 melanoma
K-562 leukemia = test system: K-562 leukemia
SW-620 colon = test system: SW-620 colon
A549 NSCLC = test system: A549 NSCLC
COLO 205 colon = test system: COLO 205 colon
LOX IMVI melanoma = test system: LOX IMVI melanoma
CAKI-1 renal = test system: CAKI-1 renal
KM12 colon = test system: KM12 colon
M19-MEL melanoma = test system: M19-MEL melanoma
SK-MEL-5 melanoma = test system: SK-MEL-5 melanoma
SNB-19 CNS = test system: SNB-19 CNS
HOP-92 NSCLC = test system: HOP-92 NSCLC
OVCAR-5 ovarian = test system: OVCAR-5 ovarian
OVCAR-3 ovarian = test system: OVCAR-3 ovarian
SF-268 CNS = test system: SF-268 CNS
M14 melanoma = test system: M14 melanoma
MOLT-4 leukemia = test system: MOLT-4 leukemia
DMS 273 small cell lung = test system: DMS 273 small cell lung
OVCAR-8 ovarian = test system: OVCAR-8 ovarian
MALME-3M melanoma = test system: MALME-3M melanoma
SNB-78 CNS = test system: SNB-78 CNS
DMS 114 small cell lung = test system: DMS 114 small cell lung
NCI-H226 lung = test system: NCI-H226 lung
SR leukemia = test system: SR leukemia
HCT-116 colon = test system: HCT-116 colon
HOP-62 NSCLC = test system: HOP-62 NSCLC

Measured: TGI

COc1ccc(S(=O)(=O)N(CC(=O)O)c2ccccc2)cc1
not listed: SNB-78 CNS | DMS 114 small cell lung | NCI-H226 lung | SR leukemia | HCT-116 colon | HOP-62 NSCLC
> 100 µM: all other assays above

CCN(CC)CSc1nc2ccccc2[nH]1
not listed: 786-0 renal | HCT-15 colon | SF-539 CNS | LXFL 529 NSCLC | SNB-75 CNS | KM20L2 colon | HCC-2998 colon | HOP-18 NSCLC | DLD-1 colon | SK-MEL-2 melanoma | SN12C renal | OVCAR-4 ovarian | RPMI-8226 leukemia | UACC-62 melanoma | K-562 leukemia | SW-620 colon | COLO 205 colon | LOX IMVI melanoma | CAKI-1 renal | M19-MEL melanoma | SK-MEL-5 melanoma | OVCAR-3 ovarian | SF-268 CNS | MALME-3M melanoma
> 100 µM: all other assays above
